The target of one test is Histamine H3 receptor (Homo sapiens, UniProt Q9Y5N1). The test is described as follows: Displacement of [3H]Nalpha-methylhistamine from human recombinant histamine H3 receptor expressed in CHO cell membranes after 30 mins by liquid scintillation analysis. A general note: Loss of bound radioactivity is the signal in a displacement assay; it reports binding, not function.

The target in a further test is Histamine H4 receptor (Homo sapiens, UniProt Q9H3N8). The test is described as follows: Displacement of [3H]histamine from human recombinant histamine H4 receptor expressed in CHO cell membranes after 30 mins by liquid scintillation analysis.
Histamine H4 receptor, sequence (Q9H3N8 whole entry): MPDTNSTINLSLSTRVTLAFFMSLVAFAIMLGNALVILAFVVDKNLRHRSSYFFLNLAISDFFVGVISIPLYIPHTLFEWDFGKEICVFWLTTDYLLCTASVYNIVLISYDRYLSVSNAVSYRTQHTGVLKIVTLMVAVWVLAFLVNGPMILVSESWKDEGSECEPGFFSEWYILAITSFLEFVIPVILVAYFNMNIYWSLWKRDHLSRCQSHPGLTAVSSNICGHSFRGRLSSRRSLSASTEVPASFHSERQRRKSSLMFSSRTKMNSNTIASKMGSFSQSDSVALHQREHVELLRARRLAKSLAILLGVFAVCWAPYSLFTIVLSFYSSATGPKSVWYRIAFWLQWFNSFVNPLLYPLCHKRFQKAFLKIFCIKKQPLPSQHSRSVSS

Histamine H3 receptor, sequence (Q9Y5N1 whole entry): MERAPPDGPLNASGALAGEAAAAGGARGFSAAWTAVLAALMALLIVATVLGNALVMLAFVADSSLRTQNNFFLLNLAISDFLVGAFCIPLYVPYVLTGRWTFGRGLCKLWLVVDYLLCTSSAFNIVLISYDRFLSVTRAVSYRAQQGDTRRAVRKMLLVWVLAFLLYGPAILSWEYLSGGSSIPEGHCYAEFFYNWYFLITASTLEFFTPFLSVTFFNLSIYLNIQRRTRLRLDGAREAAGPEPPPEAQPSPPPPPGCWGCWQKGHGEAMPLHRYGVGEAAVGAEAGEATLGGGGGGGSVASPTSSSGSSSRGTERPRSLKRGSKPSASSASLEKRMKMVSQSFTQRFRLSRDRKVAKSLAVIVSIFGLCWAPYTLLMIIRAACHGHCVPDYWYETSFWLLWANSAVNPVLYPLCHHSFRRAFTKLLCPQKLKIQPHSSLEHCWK

As for `c1ccc2[nH]c(CNCC[C@@H]3C[C@H]3c3c[nH]cn3)nc2c1`, the inhibitory constant (Ki) at Histamine H3 receptor amounted to 52 nM; at Histamine H4 receptor it was 166 nM.

With `Clc1ccc(CNCC[C@@H]2C[C@@H]2c2cc3cc(Cl)ccc3[nH]2)cc1`, the Ki on Histamine H3 receptor and on Histamine H4 receptor was greater than 1000 nM in each case.

Take `Clc1ccc(CNC[C@@H]2C[C@@H]2c2cc3cc(Cl)ccc3[nH]2)cc1`: the Ki at Histamine H3 receptor and on Histamine H4 receptor was greater than 1000 nM throughout.

On to `c1ccc2[nH]c(C[C@@H]3C[C@H]3c3c[nH]cn3)nc2c1`, for which the Ki on Histamine H3 receptor is 186 nM; on Histamine H4 receptor, 295 nM.

On to `CN1CCN([C@@H]2C[C@@H]2CNCc2ccc(Cl)cc2)CC1`, for which the Ki at Histamine H3 receptor and at Histamine H4 receptor was greater than 1000 nM each time.

With `Clc1ccc(CNC[C@H]2C[C@H]2N2CCNCC2)cc1`, the Ki on Histamine H3 receptor and on Histamine H4 receptor was greater than 1000 nM in each case.

For the molecule `Clc1ccc(CNCC[C@@H]2C[C@H]2c2nc3cc(Cl)ccc3[nH]2)cc1`, the Ki at Histamine H3 receptor and at Histamine H4 receptor was greater than 1000 nM each time.

As to `Clc1ccc(CNC[C@@H]2C[C@H]2c2nc3cc(Cl)ccc3[nH]2)cc1`, the Ki on Histamine H3 receptor and on Histamine H4 receptor was greater than 1000 nM in each case.

On to `CN1CCN([C@@H]2C[C@@H]2CCNCc2ccc(Cl)cc2)CC1`, for which the Ki at Histamine H3 receptor and at Histamine H4 receptor was greater than 1000 nM throughout.

On to `Clc1ccc(CNCC[C@H]2C[C@H]2N2CCNCC2)cc1`, for which the inhibition constant (Ki) at Histamine H3 receptor and at Histamine H4 receptor was greater than 1000 nM in each case.

Usually Ki stands for a dissociation constant, usually derived from enzyme kinetics or from competition with a known ligand.

Values taken from ChEMBL document CHEMBL4325874, “Design and synthesis of histamine H3/H4 receptor ligands with a cyclopropane scaffold” (Bioorg Med Chem Lett, 2018).
